Test results published in article PMC5531749 (Psychopharmacology, 2016).
Read-outs that look alike come from different tables or passages of the source.

Legend:
[1] = test system: visceral insular cortex (VIC) of rats; settings: intra-VIC, cited from earlier work
male Sprague-Dawley rats [2] = settings: cited from earlier work
[3] = test system: AEA and 2-AG in rat whole brain tissue; settings: ref Limebeer et al. 2014; cited from earlier work
[4] = test system: 2AG and AEA levels in nucleus accumbens; settings: localized brain area; ref Wiskerke et al. (2012); cited from earlier work
rat MAGL = settings: ref Limebeer et al. 2014; cited from earlier work
male Sprague-Dawley rats [5] = settings: cited from earlier work; remark: listed apart in the source
[6] = test system: 2-AG and AEA in VIC tissue; settings: systemic and intra-VIC administration; ref Sticht et al. (2015); cited from earlier work
male Sprague-Dawley rats [7] = assay type: in vivo, rat; settings: SR141716 2.5 mg/kg 90 min after AM4301 20 mg/kg
male Sprague-Dawley rats [8] = assay: Anticipatory nausea: contextually elicited conditioned gaping; assay type: in vivo, rat
[9] = 10–20 mg/kg systemic, CB1 receptor-dependent, ref Parker et al. 2014

SMILES: CCCCCCC(C)(C)c1cc(O)c2c(c1)OC(C)(C)[C@@H]1CC=C(CO)C[C@@H]21 [HU-210]
- acute nausea after administration into the VIC ([1]; ref Limebeer et al. 2012): suppressed

SMILES: O=C(Oc1ccc([N+](=O)[O-])cc1)N1CCN(Cc2cccc(Oc3ccccc3)c2)CC1 [JZL195]
- anticipatory nausea, dual FAAH/MAGL inhibitor (male Sprague-Dawley rats [2]; 10 mg/kg, ref Limebeer et al. 2014): suppresses
- AEA in rat whole brain tissue [3]: elevated
- elevation of 2AG level in nucleus accumbens [4]: about 50%
- elevation of AEA level in nucleus accumbens [4]: ~100%
- blocking the activities of rat MAGL in whole brain analysis (rat MAGL): ineffective

SMILES: O=C(ON1C(=O)CCC1=O)N1CCN(C(c2ccc(Cl)cc2)c2ccc(Cl)cc2)CC1 [MJN110]
- acute nausea, systemic MAGL inhibitor (male Sprague-Dawley rats [5]; [9]): suppresses
- acute nausea after administration into the VIC ([1]; ref Sticht et al. 2012b): suppressed
- anticipatory nausea, systemic MAGL inhibitor (male Sprague-Dawley rats [2]; [9]): suppresses
- 2-AG in the VIC [6]: elevates

SMILES: Cc1c(C(=O)NN2CCCCC2)nn(-c2ccc(Cl)cc2Cl)c1-c1ccc(Cl)cc1 [SR141716]
- reversal of AM4301 suppression of acute nausea by CB1 antagonist (male Sprague-Dawley rats [7]): reversed the suppressive effect of AM4301
- reversal of AM4302 suppression of anticipatory nausea by CB1 antagonist (male Sprague-Dawley rats [8]; SR 2.5 mg/kg 90 min after AM4302 20 mg/kg): reversed
- effect of CB1 antagonist on its own on contextually elicited gaping (male Sprague-Dawley rats [8]; VEH-SR 2.5 mg/kg): did not have an effect on its own

SMILES: NC(=O)c1cccc(-c2cccc(OC(=O)NC3CCCCC3)c2)c1 [URB597, cyclohexyl carbamic acid 3′-carbamoyl-biphenyl-3-yl ester]
- acute nausea, systemic FAAH inhibitor (male Sprague-Dawley rats [5]; 0.3 mg/kg systemic, ref Cross-Mellor et al. 2007): suppresses
- anticipatory nausea, systemic FAAH inhibitor (male Sprague-Dawley rats [2]; 0.3 mg/kg systemic, ref Rock et al. 2008): suppresses
